Experimental data: US20130317037A1, “METHOD OF ADMINISTRATION AND TREATMENT” (GlaxoSmithKline Intellectual Property Development Limited, priority 2010, published 2013)
Like-named read-outs stand apart in the source and are kept apart here.

Key:
Format in all cases: cell-based, human
Conditions in all cases: for IC50: Homo sapiens
EFM-19 = assay: Panel A proliferation assay (CellTiter-Glo); HER2 Gain <5, KRAS WT, PIK3CA p.H1047L
Description: (§1) A total of 15 breast cancer cell lines were used in this study. These cells were cultured in RPMI-1640 and supplemented with 5% or 10% fetal bovine serum, 2 mM GlutaMAX™ and 1 mM sodium pyruvate, or in growth medium recommended by the suppliers [American Type Culture Collection, Manassas, Va., USA; Developmental Therapeutics Program, National Cancer Institute, Bethesda, Md., USA; German Collection of Microorganisms and Cell Cultures (DSMZ), Braunschweig, Germany; European Collection of Cell Cultures (ECACC), Porton Down, UK]. Cells of each line were seeded into a 384-well microtiter plate at two cell densities. Low density ranges were 300-1800 cells/well, and a high density was 600 to 3600 cells/well). The plating density was determined by the rate of proliferation of the cell line in the absence of any inhibitor and varied amongst cell lines. High plating densities were double that of low density. Each cell density was plated in triplicate. In total there were 30 wells to be treated with increasing concentrations of Compound B for each cell line at each density. In addition, there were 24 wells of dimethyl sulfoxide (DMSO)-treated controls at each density. After seeding, the cells were incubated at 37° C. in 5% CO2 for 24 hours. Subsequently, Compound B was added to each cell line with 10 concentrations. The dosing solution of Compound B was first prepared in DMSO at a master stock concentration of 10 mM. […] were then made of the stock solution to give a range of working stock concentrations; 10.00 mM, 3.164 mM, 1.001 mM, 316.9 μM, 100.3 μM, 31.74 μM, 10.04 μM, 3.178 μM, 1.006 μM and 318.3 nM. The working stock concentrations of Compound B were then dispensed into the seeded cancer cell lines using a Biomek FX liquid handler to give final treatment concentrations of 0.1% of the stock concentration. A similar volume of DMSO without Compound B was dispensed into the 24 control wells of each seeding density at a concentration of 0.1%. Also, a zero-time plate prepared with a similar cell seeding was read for each cell line at each seeding density immediately after the addition of the DMSO control. After a 72 h incubation, an equal volume of the CellTiter-Glo (CellTiter-Glo Luminescent Cell Viability Assay, Promega, Madison, Wis.) to that of the cell culture medium was added into each well of the plate. After the contents were mixed to induce cell lysis and stabilization, cell luminescence was recorded using a SpectraMax M5^e (Molecular Devices, Sunnyvale, Calif., USA)
The luminescence of Compound B treated cells was compared relative to the average of the 24 DMSO-treated control wells at each cell density for every concentration of Compound B for all triplicate wells. The percent intensity values were used in model 205 of XLfit in Microsoft Excel to calculate gIC50s for the low and high seeding density (a 4 parameter logistical fit). Specifically, the midpoint of the growth window (the gIC50) falls half way between the number of cells at the time of compound addition (T=0) and the growth of control cells treated with DMSO. The gIC50 value serves as a metric for measuring the inhibition of proliferation in cancer cells. […] Finally, where data quality permits, the Ymin values (defined as the maximum growth inhibition relative to the cell density at Time-zero) were calculated as a measure of cytotoxicity where data were of reasonable quality.

SK-BR-3 = assay: Panel A proliferation assay (CellTiter-Glo); HER2 Gain ≧5, KRAS WT, PIK3CA WT
Description: as §1
(§2) The luminescence of Compound B treated cells was compared relative to the average of the 24 DMSO-treated control wells at each cell density for every concentration of Compound B for all triplicate wells. The percent intensity values were used in model 205 of XLfit in Microsoft Excel to calculate gIC50s for the low and high seeding density (a 4 parameter logistical fit). Specifically, the midpoint of the growth window (the gIC50) falls half way between the number of cells at the time of compound addition (T=0) and the growth of control cells treated with DMSO. The gIC50 value serves as a metric for measuring the inhibition of proliferation in cancer cells. The curves for each seeding density for each cell line were manually inspected for both data quality and appropriateness of curve fitting. Where the starting data were poor the curve and subsequent gIC50s were excluded from further analysis. Cell line seedings were considered of poor quality when the r^2 value of the fitted curve was <0.75. Finally, where data quality permits, the Ymin values (defined as the maximum growth inhibition relative to the cell density at Time-zero) were calculated as a measure of cytotoxicity where data were of reasonable quality.

UACC-812 = assay: as above
Description: as §1, §2

Q: What does the source list for `COc1ncc(-c2ccc3nccc(-c4ccnnc4)c3c2)cc1NS(=O)(=O)c1ccc(F)cc1F` [Compound B, 2,4-difluoro-N-{2-(methyloxy)-5-[4-(4-pyridazinyl)-6-quinolinyl]-3-pyridinyl}benzenesulfonamide]?
A: High Density Y-Min (EFM-19; EFM-19, high density, % of cells at T = 0): 22.7%; Low Density Y-Min (EFM-19; EFM-19, low density, % of cells at T = 0): 24.1%; IC50 (EFM-19; EFM-19, high seeding density, 72 h, read-out: High Density gIC50): 0.5 nM; IC50 (EFM-19; EFM-19, low seeding density, 72 h, read-out: Low Density gIC50): 0.6 nM; IC50 (EFM-19; EFM-19, mean of low and high density, read-out: Mean gIC50): 0.55 nM; IC50 (SK-BR-3; SK-BR-3, high seeding density, 72 h, read-out: High Density gIC50): 4.2 nM; IC50 (SK-BR-3; SK-BR-3, low seeding density, 72 h, read-out: Low Density gIC50): 2.9 nM; IC50 (SK-BR-3; SK-BR-3, mean of low and high density, read-out: Mean gIC50): 3.55 nM; High Density Y-Min (SK-BR-3; SK-BR-3, high density, % of cells at T = 0): 54.5%; Low Density Y-Min (SK-BR-3; SK-BR-3, low density, % of cells at T = 0): 52.3%; IC50 (UACC-812; UACC-812, high seeding density, 72 h, read-out: High Density gIC50): 0.1 nM; IC50 (UACC-812; UACC-812, low seeding density, 72 h, read-out: Low Density gIC50): 0.1 nM; IC50 (UACC-812; UACC-812, mean of low and high density, read-out: Mean gIC50): 0.1 nM; High Density Y-Min (UACC-812; UACC-812, high density, % of cells at T = 0): 12.6%; Low Density Y-Min (UACC-812; UACC-812, low density, % of cells at T = 0): 12.1%
